Measurements as given in patent US20160051533A1, “DIAGNOSIS AND PHARMACOLOGICAL TREATMENT OF SEASONAL AFFECTIVE DISORDER AND SYMPTOMS OF SEASONALITY” (Ladd Research LLC, priority 2014, published 2016).
Entries after “also recorded” stand apart in the source; their conditions may differ.

Legend:
Wistar female rats [1] = experiment: Symptoms noticed after administration; type: in vivo, rat; conditions: also seen with 20% DMSO vehicle; stated to be induced by DMSO
Text: No other symptom was noticed.

Wistar female rats [2] = experiment: Open-field test (OFT) in rats under shifted photoperiods
Procedure: Activity was tested in open boxes (open-fields: 100 cm wide, 100 cm long, 50 cm high) made of PVC. Animals' activity was recorded by an electronic videotracking detection system (Viewpoint, France) allowing to detect the distance travelled and the time spent in different parts of the open-field.
Light intensity was 7-10 Lux at the center of the open-fields.
Animals were individually placed for a 10-min session in the center of one quadrant of the open-field.
Parameters analyzed were: • 1) One parameter taken as an index of locomotor-exploratory behavior: • The distance travelled in the open-field. • 2) Two parameters taken as indices of anxiety behavior: • a) % Dist Cent=the percentage of distance travelled in the central 60×60 cm area of the open-field. • b) % Time cent=the percentage of time spent in the central 60×60 cm area of the open-field.
(§1) A difference was considered: • 1) Statistically significant: p≦0.05. • 2) Close-to-significant difference: 0.05<p≦0.10. • 3) Not significant: p>0.10.

[3] = Bergman et al. 2008; cited from earlier work
Wistar female rats [4] = experiment: Forced swimming test (FST) in rats under shifted photoperiods; conditions: TCS 1102 20 mg/kg IP
Procedure: Animals of CL and LL groups received the vehicles in the same conditions.
The same animals were tested by the same experimenter on the two FST sessions. The same proportion of animals of each group was tested by each experimenter.
The apparatus used for the experiment consisted of glass cylinders (64 cm high, 25 cm diameter) filled with 30 cm 25° C. water. The experiment was recorded with a camcorder, placed in front of the glass cylinder and connected to a screen, allowing the experimenter to watch the test online.
Light intensity was 15-20 Lux at the level of glass cylinders.
The behavior of the rat was measured on the second trial.
Behavior was classified as one of three behaviors: • 1) Immobility, defined as floating in the water without struggling and using only small movements to keep the head above water. • 2) Swimming, defined as moving limbs in an active manner, more than required to keep the head above water and causing movement among quadrants of the cylinder. • 3) Climbing, defined as making active movements with forepaws moving in and out of the water, usually directed against the side of the cylinder. Parameters analyzed were:
1) Imo=the immobility time.
2) Swm=the swimming time.
3) Clb=the climbing time.
A depressive-like profile is indicated by an increase of the immobility time and a decrease of either the swimming time or the climbing time. Conversely, an antidepressant-like effect is indicated by a decrease of the immobility time and an increase of either the swimming time or the climbing time.
as §1

Wistar female rats [5] = experiment: Elevated-plus maze (EPM) test in rats under shifted photoperiods; conditions: EPM
Text: Animals were subjected to the elevated-plus maze (EPM) test only once during the period of the study: at the 43th, 44th or 45th days of treatment (see Table 2).
The apparatus consisted of a plus-shaped maze, elevated 50 cm from the floor, with two opposite open arms, 50×10 cm, crossed at right angles by two arms of the same dimensions, but enclosed by 40-cm-high black opaque walls with an open roof. In addition a 1-cm-high edge made of Plexiglas surrounded the open arms to avoid falls.
Light intensity was 10 Lux at the level of open arms.
The experiment was recorded with a camcorder, placed 1.5 m above the maze and connected to a screen, allowing the experimenter to watch the test online.
Animals were individually placed for a 5-min session in the center of the plus-maze. The number of arm entries and the time spent in arms were recorded. An arm entry is defined as all four paws into the arm.
Other parameters were recorded: the time spent in open arms, the number of open arm entries, the time spent in enclosed arms, the number of enclosed arm entries and the time spent in the center of the maze.
1) Enclosed arm entries: entries into the protected arms of the EPM
as §1

[6] = 100 mpk ip 30 min; cited from earlier work
P-gp = P-gp (Homo sapiens, UniProt P08183); conditions: cited from earlier work
P-gp, sequence (P08183 whole entry): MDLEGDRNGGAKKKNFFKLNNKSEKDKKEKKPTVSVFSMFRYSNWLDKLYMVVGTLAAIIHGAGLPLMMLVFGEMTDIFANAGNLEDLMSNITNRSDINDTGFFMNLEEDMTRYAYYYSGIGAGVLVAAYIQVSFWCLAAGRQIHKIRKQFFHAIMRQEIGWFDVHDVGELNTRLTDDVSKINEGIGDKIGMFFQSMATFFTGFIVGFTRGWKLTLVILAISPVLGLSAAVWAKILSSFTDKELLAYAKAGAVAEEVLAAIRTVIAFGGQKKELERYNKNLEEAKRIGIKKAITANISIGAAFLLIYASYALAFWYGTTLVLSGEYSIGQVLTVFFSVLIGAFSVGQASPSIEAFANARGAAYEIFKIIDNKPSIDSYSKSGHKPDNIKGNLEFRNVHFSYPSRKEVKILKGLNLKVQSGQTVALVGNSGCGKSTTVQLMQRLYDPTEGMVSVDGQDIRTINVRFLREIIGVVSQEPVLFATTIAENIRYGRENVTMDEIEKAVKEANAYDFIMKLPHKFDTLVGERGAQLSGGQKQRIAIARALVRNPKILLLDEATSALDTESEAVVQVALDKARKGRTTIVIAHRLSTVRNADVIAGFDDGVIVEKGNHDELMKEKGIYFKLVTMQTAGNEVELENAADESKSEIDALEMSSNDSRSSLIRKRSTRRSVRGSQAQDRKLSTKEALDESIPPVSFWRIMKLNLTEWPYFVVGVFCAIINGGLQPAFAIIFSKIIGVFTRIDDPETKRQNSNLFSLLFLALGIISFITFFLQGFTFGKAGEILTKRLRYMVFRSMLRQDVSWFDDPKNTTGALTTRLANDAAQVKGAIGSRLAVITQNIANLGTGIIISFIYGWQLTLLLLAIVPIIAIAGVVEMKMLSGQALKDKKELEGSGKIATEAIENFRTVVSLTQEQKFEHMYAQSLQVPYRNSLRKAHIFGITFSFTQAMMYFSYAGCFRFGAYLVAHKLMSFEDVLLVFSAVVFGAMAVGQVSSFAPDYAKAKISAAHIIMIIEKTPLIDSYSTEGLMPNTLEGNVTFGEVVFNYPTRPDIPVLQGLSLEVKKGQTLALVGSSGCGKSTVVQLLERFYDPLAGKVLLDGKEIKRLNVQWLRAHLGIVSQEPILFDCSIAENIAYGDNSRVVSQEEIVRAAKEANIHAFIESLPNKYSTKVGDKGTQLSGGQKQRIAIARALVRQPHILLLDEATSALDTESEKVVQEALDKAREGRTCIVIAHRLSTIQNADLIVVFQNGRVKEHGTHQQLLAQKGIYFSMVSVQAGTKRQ

[7] = Body weight / growth rate in rats under shifted photoperiods; conditions: for growth rate: SL-TCS vs SL-Veh, IP (FIGS. 25, 27); for Body weight in percent of initial body weight (d−4): short light (SL) rats, mean
Procedure: Rats were weighed three times a week in order to examine the effect of L/D changes and the effects of treatments on the body weight.
Animals' body weight was recorded three days per week. The body weight on day d-4 was considered as the initial body weight.
Initial body weight (BW) between recorded on day d-4, before the initiation of L/D change analyzed by 1-factor ANOVA and Student's t-test.
Therefore, the following analyses were performed on the BW expressed in percentage of the initial BW. • 2) Effect of L/D condition:
The BW expressed in percentage of the initial BW was compared between by ANOVA for repeated measures (from day dl to day d54): • a) On C-Veh, LL-Veh and SL-Veh groups: overall effect. • b) On C-Veh and LL-Veh groups: effect of LL. • c) On C-Veh and SL-Veh groups: effect of SL. • d) On LL-Veh and SL-Veh groups: difference LL vs. SL. • 3) Effect of vehicle:

OxR2 = biological target: T1, OxR2 (Homo sapiens, UniProt O43614); conditions: read-out: Human OxR2 FLIPR; cited from earlier work
T1 sequence (O43614 1-444): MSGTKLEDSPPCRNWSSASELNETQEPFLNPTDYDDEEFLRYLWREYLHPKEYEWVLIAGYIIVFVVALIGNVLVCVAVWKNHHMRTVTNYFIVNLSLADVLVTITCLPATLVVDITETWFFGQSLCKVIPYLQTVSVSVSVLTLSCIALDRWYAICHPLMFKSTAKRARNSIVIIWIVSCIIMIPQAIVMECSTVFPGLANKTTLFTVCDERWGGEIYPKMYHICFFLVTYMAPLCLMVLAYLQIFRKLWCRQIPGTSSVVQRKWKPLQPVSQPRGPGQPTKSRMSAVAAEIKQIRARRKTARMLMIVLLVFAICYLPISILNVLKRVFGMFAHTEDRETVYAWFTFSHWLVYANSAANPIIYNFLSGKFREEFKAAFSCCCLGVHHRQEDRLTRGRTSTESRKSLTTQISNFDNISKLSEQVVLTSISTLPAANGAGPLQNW

[8] = OFT first session, SL-TCS vs SL-DMSO, 20 mg/kg IP
[9] = OFT first session, Short Light rats, TCS 20 mg/kg IP daily, group mean
[10] = OFT first session, TCS 1102 20 mg/kg IP
[11] = OFT reanalysis, SL rats, IP TCS 1102
[12] = SL-TCS vs SL-DMSO, 20 mg/kg IP, 20 mg/kg
[13] = short light (SL) rats, group mean, DMSO vehicle comparison groups

Cn1c(SCC(=O)N2CCC[C@H]2C(=O)Nc2ccccc2-c2ccccc2)nc2ccccc21 [TCS 1102]
symptoms after IP injection (Wistar female rats [1]): Abdominal contractions lasting 10-20 sec
effect on the % Time Center (Wistar female rats [2]; [8]): Tended to increase
effect on the Distance (Wistar female rats [2]; [8]): Did not significantly modify
effect on the % Dist Center (Wistar female rats [2]; OFT first session, SL-TCS vs SL-DMSO, 20 mg/kg IP, 20 mg/kg): reduced the decrease; also recorded: Increased
% Dist Cent (Wistar female rats [2]; [9]): 11.3%
% Time Cent (Wistar female rats [2]; [9]): 7.4%
Distance travelled (Wistar female rats [2]; [9]): 8505.8 cm
anxiogenic-like effect of short light duration (Wistar female rats [2]; [10]): reduced the anxiogenic-like effect of short light duration
motor exploratory activity (Wistar female rats [2]; [10]): did not modify
another parameter of exploratory behavior (FIGS. 5 and 6, hyper center) (Wistar female rats [2]; [11]): similarly treated
exploratory behaviors (FIG. 4) (Wistar female rats [2]; [11]): treated with statistical significance
thigmotactic anxiety-like behaviors (FIG. 3) (Wistar female rats [2]; [11]): treated fully and with statistical significance
rat in vivo half life [3]: around 0.3 hours
depression-related behavior in the FST (Wistar female rats [4]): no significant effect
effect on the AE (Wistar female rats [5]; SL-TCS vs SL-DMSO, 20 mg/kg IP): Did not significantly modify
effect on the % OAE (Wistar female rats [5]; [12]): Tended to reduce the decrease; also recorded: Increased
effect on the % TOA (Wistar female rats [5]; [12]): Did not significantly reduce the decrease; also recorded: Did not significantly modify
anxiogenic-like effect of short light duration (Wistar female rats [5]; TCS 1102 20 mg/kg IP): tended to reduce
Number of arm entries (AE) (Wistar female rats [5]; [13]): 16.8
Percentage of open arm entries (% OAE) (Wistar female rats [5]; [13]): 32.0%
Percentage of time spent in open arms (% TOA) (Wistar female rats [5]; [13]): 23.1%
Brain level [6]: 2370 nM
CSF level [6]: 43 nM
plasma level [6]: 3500 nM
P-gp (B to A/A to B) (P-gp): 1.4
growth rate [7]: consistently increased the growth rate
growth rate ([7]; listed as TCS): lessened the SL-induced low growth rate
body weight ([7]; TCS 1102 20 mg/kg IP, SL rats): no significant effect
Body weight in percent of initial body weight (d−4) ([7]; d29-t1, during treatment): 162.1%
Body weight in percent of initial body weight (d−4) ([7]; d31-t3, during treatment): 161.0%
Body weight in percent of initial body weight (d−4) ([7]; d33-t5, during treatment): 165.8%
Body weight in percent of initial body weight (d−4) ([7]; d36-t8, during treatment): 168.2%
Body weight in percent of initial body weight (d−4) ([7]; d38-t10, during treatment): 169.5%
Body weight in percent of initial body weight (d−4) ([7]; d40-t12, during treatment): 168.9%
Body weight in percent of initial body weight (d−4) ([7]; d43-t15, during treatment): 171.4%
Body weight in percent of initial body weight (d−4) ([7]; d45-t17, during treatment): 172.9%
Body weight in percent of initial body weight (d−4) ([7]; d47-t19, during treatment): 173.2%
Body weight in percent of initial body weight (d−4) ([7]; d50-t22, during treatment): 173.9%
Body weight in percent of initial body weight (d−4) ([7]; d52-t24, during treatment): 176.9%
Body weight in percent of initial body weight (d−4) ([7]; d54-t26, during treatment): 174.7%
IC50 (OxR2): 4 nM
